Laboratory results taken from BindingDB's records for doi:10.1046/j.1468-2982.2001.00157.x (Roche Bioscience, 2001).

Tests used:
[1] = target: 5-hydroxytryptamine receptor 7 (Rattus norvegicus, UniProt P32305)
[2] = target: 5-hydroxytryptamine receptor 2A (Rattus norvegicus, UniProt P14842)
[3] = target: 5-hydroxytryptamine receptor 1B (Rattus norvegicus, UniProt P28564)
[4] = target: 5-hydroxytryptamine receptor 1D (Rattus norvegicus, UniProt P28565)
[5] = target: T1, 5-hydroxytryptamine receptor 3A (Rattus norvegicus, UniProt P35563)
T1 sequence (P35563 whole entry): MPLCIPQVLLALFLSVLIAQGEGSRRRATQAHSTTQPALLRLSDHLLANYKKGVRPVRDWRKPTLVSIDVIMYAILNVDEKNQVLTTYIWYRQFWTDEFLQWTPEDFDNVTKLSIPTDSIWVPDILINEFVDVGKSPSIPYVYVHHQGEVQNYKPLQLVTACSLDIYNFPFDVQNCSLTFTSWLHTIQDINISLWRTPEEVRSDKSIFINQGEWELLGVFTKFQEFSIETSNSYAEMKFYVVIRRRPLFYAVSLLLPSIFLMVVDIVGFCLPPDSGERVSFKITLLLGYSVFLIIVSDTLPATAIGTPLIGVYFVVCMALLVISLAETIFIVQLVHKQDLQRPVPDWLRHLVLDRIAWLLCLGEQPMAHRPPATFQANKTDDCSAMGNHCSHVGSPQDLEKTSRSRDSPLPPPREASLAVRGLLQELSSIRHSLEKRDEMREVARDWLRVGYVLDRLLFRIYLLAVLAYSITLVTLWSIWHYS

[6] = target: 5-hydroxytryptamine receptor 6 (Rattus norvegicus, UniProt P31388)
Chain of 5-hydroxytryptamine receptor 6 (P31388 whole entry): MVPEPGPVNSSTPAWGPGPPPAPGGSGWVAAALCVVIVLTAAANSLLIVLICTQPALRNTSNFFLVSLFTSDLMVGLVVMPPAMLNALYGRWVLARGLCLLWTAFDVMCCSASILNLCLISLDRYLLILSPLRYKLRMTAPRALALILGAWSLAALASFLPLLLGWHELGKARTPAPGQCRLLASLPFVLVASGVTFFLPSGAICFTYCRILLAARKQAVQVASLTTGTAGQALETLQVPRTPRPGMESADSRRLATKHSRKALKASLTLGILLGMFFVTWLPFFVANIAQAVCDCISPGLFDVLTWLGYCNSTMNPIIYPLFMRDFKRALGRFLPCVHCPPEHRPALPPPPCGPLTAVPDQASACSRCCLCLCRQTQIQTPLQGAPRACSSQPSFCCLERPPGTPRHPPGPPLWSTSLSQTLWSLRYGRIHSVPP

Chain of 5-hydroxytryptamine receptor 2A (P14842 whole entry): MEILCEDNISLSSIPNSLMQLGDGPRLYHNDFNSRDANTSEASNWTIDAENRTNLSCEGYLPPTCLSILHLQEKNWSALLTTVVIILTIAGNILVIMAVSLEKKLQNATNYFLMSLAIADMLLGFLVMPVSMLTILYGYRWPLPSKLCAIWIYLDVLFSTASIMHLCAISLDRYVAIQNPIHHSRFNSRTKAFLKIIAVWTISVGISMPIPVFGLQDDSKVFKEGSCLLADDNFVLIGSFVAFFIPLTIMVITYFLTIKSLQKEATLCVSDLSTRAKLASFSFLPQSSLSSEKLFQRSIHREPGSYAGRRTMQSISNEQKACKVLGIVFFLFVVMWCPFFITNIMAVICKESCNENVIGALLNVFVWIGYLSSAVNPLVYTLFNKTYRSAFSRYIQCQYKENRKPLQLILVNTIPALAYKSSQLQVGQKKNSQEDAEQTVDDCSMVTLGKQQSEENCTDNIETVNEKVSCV
Chain of 5-hydroxytryptamine receptor 1B (P28564 whole entry): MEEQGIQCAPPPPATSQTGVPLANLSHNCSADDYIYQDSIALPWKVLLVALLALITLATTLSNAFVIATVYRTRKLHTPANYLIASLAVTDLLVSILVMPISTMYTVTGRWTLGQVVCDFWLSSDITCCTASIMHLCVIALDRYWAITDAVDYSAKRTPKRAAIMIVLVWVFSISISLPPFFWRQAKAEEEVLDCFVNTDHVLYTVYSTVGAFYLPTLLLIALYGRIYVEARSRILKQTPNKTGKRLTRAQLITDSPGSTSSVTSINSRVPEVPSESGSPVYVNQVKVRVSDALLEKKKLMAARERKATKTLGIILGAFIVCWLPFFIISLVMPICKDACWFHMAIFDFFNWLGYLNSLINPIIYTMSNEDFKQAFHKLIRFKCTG
Chain of 5-hydroxytryptamine receptor 7 (P32305 whole entry): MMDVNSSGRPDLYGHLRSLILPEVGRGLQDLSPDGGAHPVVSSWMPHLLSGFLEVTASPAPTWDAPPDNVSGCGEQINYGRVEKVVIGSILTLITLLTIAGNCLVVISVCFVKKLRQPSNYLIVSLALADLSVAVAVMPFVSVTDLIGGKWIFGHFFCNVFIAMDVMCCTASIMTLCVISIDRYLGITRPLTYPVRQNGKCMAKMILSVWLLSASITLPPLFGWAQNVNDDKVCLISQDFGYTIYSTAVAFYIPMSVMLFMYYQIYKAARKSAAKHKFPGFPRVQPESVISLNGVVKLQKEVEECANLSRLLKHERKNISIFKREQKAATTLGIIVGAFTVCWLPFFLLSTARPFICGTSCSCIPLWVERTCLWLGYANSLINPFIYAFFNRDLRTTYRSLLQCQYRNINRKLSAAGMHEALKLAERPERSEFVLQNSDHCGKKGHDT
Chain of 5-hydroxytryptamine receptor 1D (P28565 whole entry): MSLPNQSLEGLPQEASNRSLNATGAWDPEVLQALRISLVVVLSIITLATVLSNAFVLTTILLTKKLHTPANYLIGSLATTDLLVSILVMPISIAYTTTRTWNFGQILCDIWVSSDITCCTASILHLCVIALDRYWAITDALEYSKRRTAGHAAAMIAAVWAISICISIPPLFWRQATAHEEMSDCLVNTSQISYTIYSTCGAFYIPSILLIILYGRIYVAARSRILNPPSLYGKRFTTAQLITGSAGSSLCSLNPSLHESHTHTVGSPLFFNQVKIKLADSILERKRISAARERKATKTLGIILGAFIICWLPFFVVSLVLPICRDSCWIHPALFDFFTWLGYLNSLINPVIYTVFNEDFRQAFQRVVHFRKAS

Work on `Clc1cccc(N2CCNCC2)c1` [mCPP] yielded a Ki [1] of 0.251 µM, a Ki [2] of 0.2 µM and a Ki [3] of 0.251 µM. The Ki [4] was 1.58 µM, the Ki [5] was 0.1 µM and the Ki [6] was 2.51 µM.
